Laboratory results as given in patent US20230265116A1, “DEGRADATION OF (EGFR) BY CONJUGATION OF EGFR INHIBITORS WITH E3 LIGASE LIGAND AND METHODS OF USE” (BEIGENE, LTD., priority 2020, published 2023).

How the values were obtained:
[1] = system: EGFR Del19/T790M/C797S (H1975-clone #28); assay: EGFR degradation HTRF assay, H1975-clone #28 DTC cells; format: cell-based; details: H1975 # 28 DTC cells; for DC50: EGFR degradation, IC50 (DC50) from curve fit, read-out: DC50(nM) H1975 # 28 DTC; for Dmax (%) H1975 # 28 DTC: maximum percentage of inhibition (degradation)
Procedure, shortened: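 The test uses H1975 clonal lines carrying lentiviral mutant EGFR with endogenous copies removed, treated 16h at 37° C., 5% CO2. EGFR left in the lysate is quantified by HTRF, and DC50 is derived from an 8-dose curve starting at 10 uM final.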

[2] = molecular target: T1, EGFR L858R/T790M/C797S (BaF3-LTC cells) (Homo sapiens, UniProt P00533, C797S/L858R/T790M); assay: EGFR degradation HTRF assay, BaF3-LTC cells; format: cell-based; details: BaF3-LTC cells; for DC50: EGFR degradation, IC50 (DC50) from curve fit, read-out: DC50(nM) BaF3-LTC; for Dmax: maximum percentage of inhibition (degradation), read-out: Dmax (%) BaF3-LTC
T1 construct: expressed in transfected cells; host or cells: BaF3
Procedure, shortened: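 EGFR remaining after a 16 h, 37 °C exposure (8 doses, 5-fold steps from 10 uM final, 0.2% DMSO) was quantified by HTRF antibodies in cell lysate. Percent inhibition relative to DMSO control was fitted by four-parameter logistic to give DC50; Dmax denotes maximal degradation.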

T1 sequence (P00533 25-1210 T790M/C797S/L858R): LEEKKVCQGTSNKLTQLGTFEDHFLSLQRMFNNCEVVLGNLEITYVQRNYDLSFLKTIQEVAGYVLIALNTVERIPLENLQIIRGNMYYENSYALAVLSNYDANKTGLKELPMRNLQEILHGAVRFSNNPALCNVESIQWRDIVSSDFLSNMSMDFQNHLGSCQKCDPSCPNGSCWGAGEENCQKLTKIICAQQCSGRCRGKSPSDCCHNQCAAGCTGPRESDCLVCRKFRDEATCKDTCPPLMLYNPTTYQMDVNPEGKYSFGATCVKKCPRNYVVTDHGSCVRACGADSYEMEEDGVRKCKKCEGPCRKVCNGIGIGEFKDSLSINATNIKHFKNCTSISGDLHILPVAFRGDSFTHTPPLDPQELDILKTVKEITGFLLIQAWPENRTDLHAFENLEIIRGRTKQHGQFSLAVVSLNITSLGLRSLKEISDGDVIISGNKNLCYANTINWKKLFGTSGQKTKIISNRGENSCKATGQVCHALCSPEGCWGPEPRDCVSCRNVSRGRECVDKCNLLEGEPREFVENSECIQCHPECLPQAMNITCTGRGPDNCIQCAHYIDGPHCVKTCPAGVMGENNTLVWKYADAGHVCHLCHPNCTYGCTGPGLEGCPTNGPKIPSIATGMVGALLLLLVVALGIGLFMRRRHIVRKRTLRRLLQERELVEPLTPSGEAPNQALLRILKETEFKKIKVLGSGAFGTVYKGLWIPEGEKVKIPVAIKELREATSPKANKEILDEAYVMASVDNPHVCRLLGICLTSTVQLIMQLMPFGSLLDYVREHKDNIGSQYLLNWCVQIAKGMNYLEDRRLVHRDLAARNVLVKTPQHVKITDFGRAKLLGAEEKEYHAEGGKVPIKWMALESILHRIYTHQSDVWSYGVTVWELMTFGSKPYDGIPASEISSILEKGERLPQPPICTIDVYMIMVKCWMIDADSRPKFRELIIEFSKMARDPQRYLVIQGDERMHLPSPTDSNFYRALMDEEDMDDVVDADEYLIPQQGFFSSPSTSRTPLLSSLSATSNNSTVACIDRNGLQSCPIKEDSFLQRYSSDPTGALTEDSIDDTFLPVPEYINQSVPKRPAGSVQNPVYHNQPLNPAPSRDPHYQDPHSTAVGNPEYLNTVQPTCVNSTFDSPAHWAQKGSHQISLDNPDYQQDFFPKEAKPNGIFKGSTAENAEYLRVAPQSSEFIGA

Compound | DC50 [1] [nM] | Dmax (%) H1975 # 28 DTC [1] [%] | DC50 [2] [nM] | Dmax [2] [%]
CCOc1cc(N2CCC(N3CCN(CCc4c(F)ccc5c4oc(=O)n5C4CCC(=O)NC4=O)CC3)CC2)c(CC)cc1Nc1ncc(Br)c(Nc2cc(F)c3nc(CC)ccc3c2P(C)(C)=O)n1 (stereo not shown) [Example 595, 3-(7-(2-(4-(1-(4-((5-bromo-4-((5-(dimethylphosphoryl)-2-ethyl-8-fluoroquinolin-6-yl)amino)pyrimidin-2-yl)amino)-5-ethoxy-2-ethylphenyl)piperidin-4-yl)piperazin-1-yl)ethyl)-6-fluoro-2-oxobenzo[d]oxazol-3(2H)-yl)piperidine-2,6-dione] | 1.02 | 72.7 | 16.1 | 82
CCOc1cc(N2CCC(N3CCN(C[C@H]4CCN(c5cccc6c5oc(=O)n6C5CCC(=O)NC5=O)C4)CC3)CC2)c(CC)cc1Nc1ncc(Br)c(Nc2ccc3c(=O)n(CC)ncc3c2P(C)(C)=O)n1 (stereo partly drawn) [Example 560, 3-(7-((R)-3-((4-(1-(4-((5-bromo-4-((5-(dimethylphosphoryl)-2-ethyl-1-oxo-1,2-dihydrophthalazin-6-yl)amino)pyrimidin-2-yl)amino)-5-ethoxy-2-ethylphenyl)piperidin-4-yl)piperazin-1-yl)methyl)pyrrolidin-1-yl)-2-oxobenzo[d]oxazol-3(2H)-yl)piperidine-2,6-dione] | 1.36 | 80.68 | 14.1 | 92.3
CCc1cc(Nc2ncc(Br)c(Nc3ccc4nc(C)ccc4c3P(C)(C)=O)n2)c(OC)cc1N1CCC(N2CCN(CCOc3cccc4c3n(C)c(=O)n4C3CCC(=O)NC3=O)CC2)CC1 (stereo not shown) [Example 683, 3-(4-(2-(4-(1-(4-((5-bromo-4-((5-(dimethylphosphoryl)-2-methylquinolin-6-yl)amino)pyrimidin-2-yl)amino)-2-ethyl-5-methoxyphenyl)piperidin-4-yl)piperazin-1-yl)ethoxy)-3-methyl-2-oxo-2,3-dihydro-1H-benzo[d]imidazol-1-yl)piperidine-2,6-dione] | 0.595 | 75.35 | 1.11 | 95.9
CCOc1cc(N2CCC(N3CCN(CCc4ccc5c(c4)oc(=O)n5C4CCC(=O)NC4=O)CC3)CC2)c(C)cc1Nc1ncc(Br)c(Nc2ccc3nc(CC)ccc3c2P(C)(C)=O)n1 (stereo not shown) [Example 552, 3-(6-(2-(4-(1-(4-((5-bromo-4-((5-(dimethylphosphoryl)-2-ethylquinolin-6-yl)amino)pyrimidin-2-yl)amino)-5-ethoxy-2-methylphenyl)piperidin-4-yl)piperazin-1-yl)ethyl)-2-oxobenzo[d]oxazol-3 (2H)-yl)piperidine-2,6-dione] | 0.367 | 71.85 | 4.35 | 85.7
CCc1cc(Nc2ncc(Br)c(Nc3ccc4nc(C)sc4c3P(C)(C)=O)n2)c(OC)cc1N1CCC(N2CCN(CCc3cc(F)c([C@H]4CCC(=O)NC4=O)c(F)c3)CC2)CC1 [Example 661, (R)-3-(4-(2-(4-(1-(4-((5-bromo-4-((7-(dimethylphosphoryl)-2-methylbenzo[d]thiazol-6-yl)amino)pyrimidin-2-yl)amino)-2-ethyl-5-methoxyphenyl)piperidin-4-yl)piperazin-1-yl)ethyl)-2,6-difluorophenyl)piperidine-2,6-dione] | 0.609 | 87.94 | 8.68 | 85.8
CCOc1cc(N2CCC(N3CCN(C(=O)[C@@H]4CCN(c5cc(F)c([C@H]6CCC(=O)NC6=O)c(F)c5)C4)CC3)CC2)c(CC)cc1Nc1ncc(Br)c(Nc2cc(F)c3ncccc3c2P(C)(C)=O)n1 [Example 678, (R)-3-(4-((R)-3-(4-(1-(4-((5-bromo-4-((5-(dimethylphosphoryl)-8-fluoroquinolin-6-yl)amino)pyrimidin-2-yl)amino)-5-ethoxy-2-ethylphenyl)piperidin-4-yl)piperazine-1-carbonyl)pyrrolidin-1-yl)-2,6-difluorophenyl)piperidine-2,6-dione] | 1.39 | 81.53 | 5.8 | 94.9
CCc1cc(Nc2ncc(Br)c(Nc3ccc4cc(C)ncc4c3P(C)(C)=O)n2)c(OC)cc1N1CCC(N2CCN(C(=O)[C@@H]3CCN(c4cc(F)c([C@H]5CCC(=O)NC5=O)c(F)c4)C3)CC2)CC1 [Example 586, (R)-3-(4-((R)-3-(4-(1-(4-((5-bromo-4-((8-(dimethylphosphoryl)-3-methylisoquinolin-7-yl)amino)pyrimidin-2-yl)amino)-2-ethyl-5-methoxyphenyl)piperidin-4-yl)piperazine-1-carbonyl)pyrrolidin-1-yl)-2,6-difluorophenyl)piperidine-2,6-dione] | 0.958 | 84.73 | 3.85 | 94.1
CCOc1cc(N2CCC(N3CCN(CCc4cc(F)c5c(c4)C4(CC4)C(=O)N5C4CCC(=O)NC4=O)CC3)CC2)c(CC)cc1Nc1ncc(Br)c(Nc2ccc3nc(CC)ccc3c2P(C)(C)=O)n1 (stereo not shown) [Example 659, 3-(5′-(2-(4-(1-(4-((5-bromo-4-((5-(dimethylphosphoryl)-2-ethylquinolin-6-yl)amino)pyrimidin-2-yl)amino)-5-ethoxy-2-ethylphenyl)piperidin-4-yl)piperazin-1-yl)ethyl)-7′-fluoro-2′-oxospiro[cyclopropane-1,3′-indolin]-1′-yl)piperidine-2,6-dione] | 2.8 | 77.5 | 17.8 | 73.3
CCc1cc(Nc2ncc(Br)c(Nc3ccc4nc(C)ccc4c3P(C)(C)=O)n2)c(OC)cc1N1CCC(N2CCN(C(=O)[C@@H]3CCN(c4cc(F)c([C@H]5CCC(=O)NC5=O)c(F)c4)C3)[C@H](CO)C2)CC1 [Example 675, (R)-3-(4-((R)-3-((S)-4-(1-(4-((5-bromo-4-((5-(dimethylphosphoryl)-2-methylquinolin-6-yl)amino)pyrimidin-2-yl)amino)-2-ethyl-5-methoxyphenyl)piperidin-4-yl)-2-(hydroxymethyl)piperazine-1-carbonyl)pyrrolidin-1-yl)-2,6-difluorophenyl)piperidine-2,6-dione] | 1.01 | 82.47 | 4.3 | 96.5
CCOc1cc(N2CCC(N3CCN(CCC4CCN(c5cc(F)c6c(c5)n(CC)c(=O)n6C5CCC(=O)NC5=O)CC4)CC3)CC2)c(CC)cc1Nc1ncc(Br)c(Nc2ccc3c(=O)n(CC)ncc3c2P(C)(C)=O)n1 (stereo not shown) [Example 640, 3-(5-(4-(2-(4-(1-(4-((5-bromo-4-((5-(dimethylphosphoryl)-2-ethyl-1-oxo-1,2-dihydrophthalazin-6-yl)amino)pyrimidin-2-yl)amino)-5-ethoxy-2-ethylphenyl)piperidin-4-yl)piperazin-1-yl)ethyl)piperidin-1-yl)-3-ethyl-7-fluoro-2-oxo-2,3-dihydro-1H-benzo[d]imidazol-1-yl)piperidine-2,6-dione] | 3.09 | 85.38 | 17.9 | 87.2
